From ChEMBL document CHEMBL1137237, “Identification of isothiazole-4-carboxamidines derivatives as a novel class of allosteric MEK1 inhibitors” (Bioorg Med Chem Lett, 2006)
pEC50, pIC50: −log10 of the molar value.

Key:
[1] = AUC following oral dose; format: ADME, organism-based; conditions: rat, plasma
[2] = molecular target: T1, Dual specificity mitogen-activated protein kinase kinase 1 (Homo sapiens, UniProt Q02750); assay: Inhibition of MEK-1
[3] = molecular target: Serine/threonine-protein kinase Chk2 (Homo sapiens, UniProt O96017); assay: Inhibition of CHK2
Sequence of Serine/threonine-protein kinase Chk2 (O96017 whole entry): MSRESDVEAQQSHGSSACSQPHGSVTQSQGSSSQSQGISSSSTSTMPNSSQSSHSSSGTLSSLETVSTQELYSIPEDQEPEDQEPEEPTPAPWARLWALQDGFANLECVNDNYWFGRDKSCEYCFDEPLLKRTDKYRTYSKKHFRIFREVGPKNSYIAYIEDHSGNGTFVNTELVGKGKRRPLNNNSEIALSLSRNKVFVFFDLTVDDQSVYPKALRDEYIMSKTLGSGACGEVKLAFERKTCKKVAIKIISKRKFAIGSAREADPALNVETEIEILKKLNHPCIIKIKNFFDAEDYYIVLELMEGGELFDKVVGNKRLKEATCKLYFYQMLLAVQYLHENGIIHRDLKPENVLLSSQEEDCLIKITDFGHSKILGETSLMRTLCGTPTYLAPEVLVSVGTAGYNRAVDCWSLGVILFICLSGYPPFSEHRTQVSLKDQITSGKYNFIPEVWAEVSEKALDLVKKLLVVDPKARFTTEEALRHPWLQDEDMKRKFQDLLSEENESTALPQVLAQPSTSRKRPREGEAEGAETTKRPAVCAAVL

Aurora kinase A = molecular target: T2, Aurora kinase A (Homo sapiens, UniProt O14965); assay: Inhibition of Aurora
T2 sequence (O14965 whole entry): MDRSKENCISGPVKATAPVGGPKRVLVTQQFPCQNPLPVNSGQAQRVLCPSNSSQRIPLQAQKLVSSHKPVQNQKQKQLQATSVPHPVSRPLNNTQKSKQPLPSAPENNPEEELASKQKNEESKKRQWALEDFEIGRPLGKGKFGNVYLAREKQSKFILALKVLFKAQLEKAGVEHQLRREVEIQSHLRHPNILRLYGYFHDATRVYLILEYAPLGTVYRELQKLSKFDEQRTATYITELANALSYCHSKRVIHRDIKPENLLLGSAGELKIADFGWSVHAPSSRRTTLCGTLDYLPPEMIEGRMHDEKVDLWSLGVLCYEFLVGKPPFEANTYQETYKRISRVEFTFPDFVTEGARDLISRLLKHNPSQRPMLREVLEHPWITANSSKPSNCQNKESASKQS

[4] = molecular target: T3, Receptor-type tyrosine-protein kinase FLT3 (Homo sapiens, UniProt P36888); assay: Inhibition of Flt-3
T3 sequence (P36888 whole entry): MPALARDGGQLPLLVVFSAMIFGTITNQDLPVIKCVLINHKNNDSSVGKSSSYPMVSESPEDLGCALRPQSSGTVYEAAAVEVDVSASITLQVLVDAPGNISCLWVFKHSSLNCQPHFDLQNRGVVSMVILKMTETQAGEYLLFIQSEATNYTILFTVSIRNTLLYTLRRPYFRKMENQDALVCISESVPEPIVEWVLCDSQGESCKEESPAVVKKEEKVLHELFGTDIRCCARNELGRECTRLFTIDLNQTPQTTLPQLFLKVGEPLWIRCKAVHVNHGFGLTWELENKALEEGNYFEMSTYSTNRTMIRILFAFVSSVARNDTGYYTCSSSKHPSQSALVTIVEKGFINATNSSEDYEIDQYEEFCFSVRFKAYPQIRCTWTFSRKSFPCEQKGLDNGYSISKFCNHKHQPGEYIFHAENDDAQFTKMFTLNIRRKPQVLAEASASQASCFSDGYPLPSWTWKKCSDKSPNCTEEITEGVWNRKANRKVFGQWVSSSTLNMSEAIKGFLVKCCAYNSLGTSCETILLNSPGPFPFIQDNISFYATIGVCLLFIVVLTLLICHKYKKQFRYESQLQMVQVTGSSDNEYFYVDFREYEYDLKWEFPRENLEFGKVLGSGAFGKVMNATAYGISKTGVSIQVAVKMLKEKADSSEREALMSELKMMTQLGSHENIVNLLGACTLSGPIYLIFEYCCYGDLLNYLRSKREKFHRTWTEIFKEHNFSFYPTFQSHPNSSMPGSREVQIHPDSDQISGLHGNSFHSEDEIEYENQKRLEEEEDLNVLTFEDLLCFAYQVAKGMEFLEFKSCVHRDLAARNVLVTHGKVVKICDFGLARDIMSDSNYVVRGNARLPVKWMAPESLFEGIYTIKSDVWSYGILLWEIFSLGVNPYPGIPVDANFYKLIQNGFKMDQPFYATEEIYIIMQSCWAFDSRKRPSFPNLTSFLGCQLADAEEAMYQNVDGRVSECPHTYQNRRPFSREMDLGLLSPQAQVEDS

[5] = molecular target: T1, Dual specificity mitogen-activated protein kinase kinase 1; assay: Inhibitory activity against MEK-1; format: functional
[6] = molecular target: T1, Dual specificity mitogen-activated protein kinase kinase 1; assay: Inhibition of MEK-1 activity
[7] = molecular target: Ribosomal protein S6 kinase (P70S6K) (Homo sapiens, UniProt P23443+Q9UBS0); assay: Inhibition of p70 S6 kinase; format: protein-complex assay
Sequence of Ribosomal protein S6 kinase (P70S6K) (Q9UBS0 whole entry): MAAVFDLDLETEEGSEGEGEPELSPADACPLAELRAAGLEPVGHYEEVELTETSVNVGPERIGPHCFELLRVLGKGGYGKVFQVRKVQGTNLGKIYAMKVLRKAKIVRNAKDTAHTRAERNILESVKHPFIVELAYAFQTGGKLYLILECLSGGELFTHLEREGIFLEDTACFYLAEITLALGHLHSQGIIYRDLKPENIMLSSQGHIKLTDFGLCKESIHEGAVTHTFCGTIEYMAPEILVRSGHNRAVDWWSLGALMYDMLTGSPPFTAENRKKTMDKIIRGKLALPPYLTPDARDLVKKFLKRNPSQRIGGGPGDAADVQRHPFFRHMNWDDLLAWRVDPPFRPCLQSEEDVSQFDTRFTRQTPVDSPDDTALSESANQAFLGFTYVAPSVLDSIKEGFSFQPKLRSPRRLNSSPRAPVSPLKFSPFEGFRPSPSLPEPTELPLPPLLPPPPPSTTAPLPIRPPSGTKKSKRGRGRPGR
Sequence of Ribosomal protein S6 kinase (P70S6K) (P23443 whole entry): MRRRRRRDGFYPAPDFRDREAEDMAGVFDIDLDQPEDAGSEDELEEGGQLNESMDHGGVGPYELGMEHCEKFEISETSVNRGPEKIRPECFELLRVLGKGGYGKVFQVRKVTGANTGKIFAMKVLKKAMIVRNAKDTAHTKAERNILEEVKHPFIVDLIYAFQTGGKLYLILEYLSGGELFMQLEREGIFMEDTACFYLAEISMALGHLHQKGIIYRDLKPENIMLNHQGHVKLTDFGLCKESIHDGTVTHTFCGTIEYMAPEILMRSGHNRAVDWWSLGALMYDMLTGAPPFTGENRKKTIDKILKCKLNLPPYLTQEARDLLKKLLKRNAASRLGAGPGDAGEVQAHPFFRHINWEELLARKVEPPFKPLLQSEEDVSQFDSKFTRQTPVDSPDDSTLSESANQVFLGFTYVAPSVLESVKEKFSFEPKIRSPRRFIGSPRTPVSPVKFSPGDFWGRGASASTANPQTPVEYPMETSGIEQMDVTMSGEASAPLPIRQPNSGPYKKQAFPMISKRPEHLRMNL

[8] = molecular target: T4, Tyrosine-protein kinase receptor UFO (Homo sapiens, UniProt P30530); assay: Inhibition of Axl
T4 sequence (P30530 whole entry): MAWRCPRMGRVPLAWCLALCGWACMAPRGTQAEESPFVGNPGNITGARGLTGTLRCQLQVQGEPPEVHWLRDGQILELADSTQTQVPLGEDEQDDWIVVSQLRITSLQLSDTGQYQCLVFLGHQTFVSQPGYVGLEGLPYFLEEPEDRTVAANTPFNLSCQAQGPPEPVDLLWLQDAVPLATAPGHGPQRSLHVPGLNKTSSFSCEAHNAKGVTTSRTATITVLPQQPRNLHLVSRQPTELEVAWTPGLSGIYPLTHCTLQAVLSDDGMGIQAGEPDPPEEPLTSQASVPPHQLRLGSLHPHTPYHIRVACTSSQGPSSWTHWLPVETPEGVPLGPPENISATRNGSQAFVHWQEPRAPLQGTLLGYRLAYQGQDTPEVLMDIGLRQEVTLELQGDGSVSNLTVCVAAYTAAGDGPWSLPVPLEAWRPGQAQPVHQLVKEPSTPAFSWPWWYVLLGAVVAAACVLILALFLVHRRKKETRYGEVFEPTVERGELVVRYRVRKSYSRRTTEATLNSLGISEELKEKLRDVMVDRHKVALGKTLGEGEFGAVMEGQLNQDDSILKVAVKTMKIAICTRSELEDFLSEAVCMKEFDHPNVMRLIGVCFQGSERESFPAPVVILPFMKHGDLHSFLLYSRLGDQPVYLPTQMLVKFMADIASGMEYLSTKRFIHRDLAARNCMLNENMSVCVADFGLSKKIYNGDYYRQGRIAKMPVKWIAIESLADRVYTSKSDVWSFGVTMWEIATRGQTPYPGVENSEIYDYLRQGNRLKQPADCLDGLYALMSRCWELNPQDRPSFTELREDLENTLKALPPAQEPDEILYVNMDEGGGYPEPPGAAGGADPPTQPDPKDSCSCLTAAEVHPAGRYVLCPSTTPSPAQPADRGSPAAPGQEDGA

[9] = AUC following intravenous dose; format: ADME, organism-based; conditions: rat, plasma

T1 sequence (Q02750 whole entry): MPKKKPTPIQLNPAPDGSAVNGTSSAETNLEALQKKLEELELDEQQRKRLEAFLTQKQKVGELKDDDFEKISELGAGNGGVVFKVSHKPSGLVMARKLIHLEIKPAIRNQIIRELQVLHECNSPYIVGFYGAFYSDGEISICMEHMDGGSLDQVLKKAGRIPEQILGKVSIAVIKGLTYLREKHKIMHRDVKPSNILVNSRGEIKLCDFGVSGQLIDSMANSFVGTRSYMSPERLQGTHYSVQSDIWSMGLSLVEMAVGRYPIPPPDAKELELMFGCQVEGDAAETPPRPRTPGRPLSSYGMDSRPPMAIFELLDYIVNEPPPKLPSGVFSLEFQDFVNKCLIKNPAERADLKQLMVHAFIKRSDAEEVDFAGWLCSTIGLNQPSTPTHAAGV

Row | Structure (SMILES) | AUC [1] [ng·h/mL] | also measured
1 | CC(C)C(CO)N=C(N)c1c(Nc2ccc(Oc3cc(Cl)ccc3Cl)cc2)s[nH]c1=O (stereo not given) | 22400 | 
2 | CC(CO)N=C(N)c1c(Nc2ccc(Oc3cccc(C(F)(F)F)c3Cl)c(F)c2)s[nH]c1=O (stereo not given) | 4500 | 
3 | CC(CO)NC(=N)c1c(O)nsc1Nc1ccc(Oc2cccc(Cl)c2Cl)c(Cl)c1 (stereo not given) | 4280 | 
4 | CC(CO)NC(=N)c1c(O)nsc1Nc1ccc(Oc2cc(F)ccc2Cl)cc1 (stereo not given) | 900 | 
5 | N=C(NCC1CCCO1)c1c(O)nsc1Nc1ccc(Oc2cc(Cl)ccc2Cl)cc1 (stereo not given) | 425 | 
6 | CC(CO)N=C(N)c1c(Nc2ccc(Oc3cccc(N(C)C)c3)cc2)s[nH]c1=O (stereo not given) | 900 | 
7 | N=C(NCCC(O)CO)c1c(O)nsc1Nc1ccc(Oc2cc(Cl)ccc2Cl)cc1 (stereo not given) | 2020 | 
8 | CC(CO)NC(=N)c1c(O)nsc1Nc1ccc(Oc2ccc(Cl)cc2Cl)cc1 (stereo not given) | 26200 | 
9 | CC(CO)N=C(N)c1c(Nc2ccc(Oc3cccc(C(F)(F)F)c3F)cc2)s[nH]c1=O (stereo not given) | 13000 | 
10 | CC(CO)N=C(N)c1c(Nc2ccc(Oc3ccc(F)cc3Cl)c(Cl)c2)s[nH]c1=O (stereo not given) | 5690 | 
11 | CC(CO)NC(=N)c1c(O)nsc1Nc1ccc(Nc2ccccc2)cc1 (stereo not given) | 1240 | pIC50 [2]: 6.58; pIC50 [3]: 7.89; pIC50 (Aurora kinase A): 6.58; pIC50 [4]: 6.35; pEC50 [5]: 7.35; pIC50 [6]: 6.62; pIC50 [7]: 6.00; pIC50 [8]: 6.41; AUC [9]: 859 ng·h/mL
12 | CC(CO)/N=C(\N)c1c(O)nsc1Nc1ccc(Oc2cc(F)cc(F)c2Cl)c(F)c1 (stereo not given) | 14900 | 
13 | CC(CO)/N=C(\N)c1c(O)nsc1Nc1ccc(Oc2ccccc2)cc1 (stereo not given) | 1140 | pIC50 [2]: 7.59; pIC50 [3]: 6.85; pIC50 (Aurora kinase A): 6.59; pIC50 [4]: 6.10; pEC50 [5]: 7.38; pIC50 [6]: 7.48; pIC50 [7]: 5.58; pIC50 [8]: 6.34; AUC [9]: 8320 ng·h/mL
14 | NC(=NC(CO)CO)c1c(Nc2ccc(Oc3cc(Cl)ccc3Cl)cc2)s[nH]c1=O | 5100 | 
15 | CC(CO)N=C(N)c1c(Nc2ccc(S(=O)(=O)c3ccccc3)cc2)s[nH]c1=O (stereo not given) | 4250 | AUC [9]: 8540 ng·h/mL
16 | CC(CO)/N=C(\N)c1c(O)nsc1Nc1ccc(C(=O)c2ccccc2)cc1 (stereo not given) | 60 | AUC [9]: 2900 ng·h/mL
17 | CC(CO)N=C(N)c1c(Nc2ccc(Oc3cc(C(F)(F)F)ccc3F)cc2)s[nH]c1=O (stereo not given) | 31300 | 
18 | NC(=NCCO)c1c(Nc2ccc(Oc3cc(Cl)ccc3Cl)cc2)s[nH]c1=O | 14600 | 
19 | N=C(NCCN1CCOCC1)c1c(O)nsc1Nc1ccc(Oc2cc(Cl)ccc2Cl)cc1 | 617 | 
20 | CN1CCN(CCC/N=C(\N)c2c(O)nsc2Nc2ccc(Oc3cc(Cl)ccc3Cl)cc2)CC1 | 2420 | 
21 | CC(CO)/N=C(\N)c1c(O)nsc1Nc1ccc(Oc2cc(F)cc(F)c2)cc1 (stereo not given) | 5140 | 
22 | CC(CO)NC(=N)c1c(O)nsc1Nc1ccc(Oc2cccc(C(F)(F)F)c2Cl)c(Cl)c1 (stereo not given) | 5710 | 
23 | N/C(=N\CCN1CCNC(=O)C1)c1c(O)nsc1Nc1ccc(Oc2cc(Cl)ccc2Cl)cc1 | 87 | 
24 | CC(CO)NC(=N)c1c(O)nsc1Nc1ccc(Oc2cccc(C(F)(F)F)c2Cl)cc1 (stereo not given) | 20400 | 

Row | Structure (SMILES) | AUC [1] [ng·h/mL] | also measured
25 | CC(CO)N=C(N)c1c(Nc2ccc(Oc3cc(Cl)ccc3Cl)cc2)s[nH]c1=O (stereo not given) | 47400 | 
26 | CC(O)C/N=C(\N)c1c(O)nsc1Nc1ccc(Oc2cc(Cl)ccc2Cl)cc1 (stereo not given) | 23900 | 
27 | CC(CO)/N=C(\N)c1c(O)nsc1Nc1ccc(Cc2ccccc2)cc1 (stereo not given) | 220 | AUC [9]: 7250 ng·h/mL
28 | CC(CO)NC(=N)c1c(O)nsc1Nc1ccc(Oc2cccc(F)c2F)cc1 (stereo not given) | 9430 | 
29 | CCC(CO)/N=C(\N)c1c(O)nsc1Nc1ccc(Oc2cc(Cl)ccc2Cl)cc1 (stereo not given) | 14600 | 
30 | CN1CCN(N=C(N)c2c(Nc3ccc(Oc4cc(Cl)ccc4Cl)cc3)s[nH]c2=O)CC1 | 1980 | 
31 | CC(CO)/N=C(\N)c1c(O)nsc1Nc1ccc(Oc2cccc(Cl)c2F)cc1 (stereo not given) | 12600 | 
32 | CN1CCN(CC/N=C(\N)c2c(O)nsc2Nc2ccc(Oc3cc(Cl)ccc3Cl)cc2)CC1 | 262 | 
33 | Cc1cc(Oc2ccc(F)cc2Cl)ccc1Nc1snc(O)c1/C(N)=N/C(C)CO (stereo not given) | 12700 | 
34 | CC(CO)NC(=N)c1c(O)nsc1Nc1ccc(Oc2cc(Cl)cc(Cl)c2)cc1 (stereo not given) | 11700 | 
35 | CC(CO)N=C(N)c1c(Nc2ccc(Oc3cc(C(F)(F)F)ccc3Cl)cc2)s[nH]c1=O (stereo not given) | 21900 | 
36 | CC(CO)/N=C(\N)c1c(O)nsc1Nc1ccc(C(C)(C)c2ccccc2)cc1 (stereo not given) | 2350 | AUC [9]: 9250 ng·h/mL
37 | CC(CO)NC(=N)c1c(O)nsc1Nc1ccc(Oc2cccc(C(F)(F)F)c2)cc1 (stereo not given) | 28700 | 
38 | CC(CO)/N=C(\N)c1c(O)nsc1Nc1ccc(Oc2ccc(F)cc2Cl)cc1 (stereo not given) | 6260 | 
39 | CC(CO)/N=C(\N)c1c(O)nsc1Nc1ccc(Oc2cc(Cl)ccc2Cl)c(F)c1 (stereo not given) | 22200 | 
40 | CC(CO)/N=C(\N)c1c(O)nsc1Nc1ccc(Oc2ccc(F)cc2F)cc1 (stereo not given) | 16500 | 
41 | NC(=NCCCN1CCOCC1)c1c(Nc2ccc(Oc3cc(Cl)ccc3Cl)cc2)s[nH]c1=O | 6860 | 
42 | CC(CO)N=C(N)c1c(Nc2ccc(Sc3ccccc3)cc2)s[nH]c1=O (stereo not given) | 265 | AUC [9]: 6900 ng·h/mL
43 | N/C(=N\N1CCOCC1)c1c(O)nsc1Nc1ccc(Oc2cc(Cl)ccc2Cl)cc1 | 2880 | 
44 | NC(=NCC(O)CO)c1c(Nc2ccc(Oc3cc(Cl)ccc3Cl)cc2)s[nH]c1=O (stereo not given) | 12500 | 
45 | CC(CO)NC(=N)c1c(O)nsc1Nc1ccc(Oc2cc(F)cc(C(F)(F)F)c2)cc1 (stereo not given) | 15400 | 
46 | CC(CO)/N=C(\N)c1c(O)nsc1Nc1ccc(Oc2cc(F)cc(F)c2Cl)cc1 (stereo not given) | 20300 | 
47 | CC(CO)/N=C(\N)c1c(O)nsc1Nc1ccc(Oc2cccc(Cl)c2Cl)cc1 (stereo not given) | 5260 | 
